Measured values: patent publication US8383817B2, “Benztropine compounds and uses thereof” (The United States of America, as represented by the …, priority 2005, dated 2013)
Where two headings read alike, the source gives them in different places.

Tests used:
DAT [1] = target: T1, DAT (Rattus norvegicus, UniProt P23977); test: biochemical; type: binding
T1 construct: their brains removed to an ice-cooled dish for dissection of the caudate putamen; from tissue; host or cells: rat caudate putamen homogenate
T1 sequence (P23977 whole entry): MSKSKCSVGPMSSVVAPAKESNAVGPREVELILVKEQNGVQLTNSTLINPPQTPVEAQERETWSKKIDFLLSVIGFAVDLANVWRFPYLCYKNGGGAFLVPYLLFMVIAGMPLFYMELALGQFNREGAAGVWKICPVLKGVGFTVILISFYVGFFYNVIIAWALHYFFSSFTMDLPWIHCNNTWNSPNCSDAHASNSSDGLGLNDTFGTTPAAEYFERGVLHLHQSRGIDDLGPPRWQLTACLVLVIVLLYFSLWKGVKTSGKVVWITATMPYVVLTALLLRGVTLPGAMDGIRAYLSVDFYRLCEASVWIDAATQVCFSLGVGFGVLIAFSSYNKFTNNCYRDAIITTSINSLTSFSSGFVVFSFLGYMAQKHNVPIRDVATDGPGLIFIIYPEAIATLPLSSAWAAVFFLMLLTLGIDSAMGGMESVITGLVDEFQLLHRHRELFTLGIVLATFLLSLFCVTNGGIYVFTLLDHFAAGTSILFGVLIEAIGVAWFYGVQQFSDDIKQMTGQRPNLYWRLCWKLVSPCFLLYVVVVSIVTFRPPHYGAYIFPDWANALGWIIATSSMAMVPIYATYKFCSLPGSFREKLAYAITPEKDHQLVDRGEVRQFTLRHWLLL

NET [2] = type: binding, rat
NET [3] = target: T2, NET (Rattus norvegicus, UniProt Q63380); type: binding; details: read-out: NET [3H]nisoxetine Ki ± SEM; rat brain membranes; incubation time 1 h
T2 sequence (Q63380 1-617): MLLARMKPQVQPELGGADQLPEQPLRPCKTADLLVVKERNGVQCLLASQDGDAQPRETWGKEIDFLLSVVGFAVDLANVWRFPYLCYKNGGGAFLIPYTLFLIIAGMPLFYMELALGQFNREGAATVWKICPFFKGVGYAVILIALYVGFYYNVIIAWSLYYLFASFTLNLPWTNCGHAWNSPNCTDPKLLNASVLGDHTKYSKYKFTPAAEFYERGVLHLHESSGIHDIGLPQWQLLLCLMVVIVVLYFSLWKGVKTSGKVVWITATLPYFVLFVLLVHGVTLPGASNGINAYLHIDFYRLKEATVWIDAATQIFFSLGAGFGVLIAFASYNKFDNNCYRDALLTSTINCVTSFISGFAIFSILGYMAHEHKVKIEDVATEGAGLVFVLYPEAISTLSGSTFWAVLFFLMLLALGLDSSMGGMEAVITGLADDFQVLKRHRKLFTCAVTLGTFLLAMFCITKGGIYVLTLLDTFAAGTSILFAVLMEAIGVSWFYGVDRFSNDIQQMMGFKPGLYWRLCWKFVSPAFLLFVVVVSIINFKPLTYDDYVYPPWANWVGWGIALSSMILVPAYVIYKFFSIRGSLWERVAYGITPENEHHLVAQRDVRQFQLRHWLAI

SERT [4] = target: T3, SERT (Rattus norvegicus, UniProt P31652); test: [3H]Citalopram Binding Assay, rat midbrain membranes; details: for Ki: rat brain membranes, read-out: SERT [3H]citalopram Ki ± SEM
T3 construct: Membranes from frozen rat midbrain were homogenized; from tissue; host or cells: rat midbrain membranes
T3 sequence (P31652 whole entry): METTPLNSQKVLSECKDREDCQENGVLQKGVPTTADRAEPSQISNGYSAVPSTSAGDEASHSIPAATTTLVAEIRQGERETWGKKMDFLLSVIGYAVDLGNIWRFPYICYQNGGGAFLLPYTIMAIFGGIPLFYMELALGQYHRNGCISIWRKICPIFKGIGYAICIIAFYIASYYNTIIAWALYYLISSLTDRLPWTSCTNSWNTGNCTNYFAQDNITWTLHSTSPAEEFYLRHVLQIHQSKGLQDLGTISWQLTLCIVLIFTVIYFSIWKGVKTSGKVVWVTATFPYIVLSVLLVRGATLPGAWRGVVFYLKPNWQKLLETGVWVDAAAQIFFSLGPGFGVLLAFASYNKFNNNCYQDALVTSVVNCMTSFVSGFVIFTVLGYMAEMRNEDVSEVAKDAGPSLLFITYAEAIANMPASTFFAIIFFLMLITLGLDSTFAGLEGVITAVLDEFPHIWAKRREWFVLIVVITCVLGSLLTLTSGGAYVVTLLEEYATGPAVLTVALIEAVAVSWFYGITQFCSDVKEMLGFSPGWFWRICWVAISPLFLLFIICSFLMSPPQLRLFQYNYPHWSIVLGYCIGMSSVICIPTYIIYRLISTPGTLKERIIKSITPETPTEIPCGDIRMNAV

muscarinic M1 receptor [5] = target: T4, muscarinic M1 receptor (Rattus norvegicus, UniProt P08482); test: [3H]Pirenzepine Binding Assay, rat brain membranes
T4 construct: Membranes from frozen rat brains excluding cerebellum were thawed; from tissue; host or cells: rat brain (excluding cerebellum) membranes
T4 sequence (P08482 1-460): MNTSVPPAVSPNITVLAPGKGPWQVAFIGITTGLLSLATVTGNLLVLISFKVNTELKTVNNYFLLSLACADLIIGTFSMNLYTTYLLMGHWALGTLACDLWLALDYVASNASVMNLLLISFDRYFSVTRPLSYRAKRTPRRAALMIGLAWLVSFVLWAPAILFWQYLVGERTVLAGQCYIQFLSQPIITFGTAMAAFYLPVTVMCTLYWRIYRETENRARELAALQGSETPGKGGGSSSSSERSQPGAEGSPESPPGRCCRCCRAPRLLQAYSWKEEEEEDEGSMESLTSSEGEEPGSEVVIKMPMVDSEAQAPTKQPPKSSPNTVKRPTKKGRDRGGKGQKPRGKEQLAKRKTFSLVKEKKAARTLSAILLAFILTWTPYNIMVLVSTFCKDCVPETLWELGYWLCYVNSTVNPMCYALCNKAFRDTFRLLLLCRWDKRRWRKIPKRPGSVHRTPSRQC

muscarinic M1 receptor [6] = target: T4, muscarinic M1 receptor; details: read-out: M1 [3H]pirenzepine Ki ± SEM, cited from earlier work
[7] = Model For Reducing Effect of Nicotine (nicotine discrimination); type: in vivo, rat; details: rats; dose 3.0 mg/kg; nicotine only control 50%
From the text: Model For Reducing Effect of Nicotine. Food-deprived rats were trained to press one lever for a food pellet after nicotine administration and a second lever after vehicle administration. Pellets of food were delivered intermittently, so that every twentieth response produced food. Using this procedure, the only cue for the rat regarding which lever occasionally pays off with a food pellet, is the subjective effect of the nicotine. When the rats were accurately and reliably identifying the nicotine injections (approximately all of its responses on the lever that occasionally pays off after nicotine or saline), testing began. The rats were pretreated with a compound of Formula III before nicotine injection, and the experiment progressed as described above, except responses on either lever intermittently produced food. A 50% effective nicotine dose was reduced to low levels of effectiveness upon administration of a compound of Formula III.

DAT [8] = target: T1, DAT
SERT [9] = target: T3, SERT; details: read-out: SERT [3H]citalopram Ki ± SEM, cited from earlier work
NET [10] = target: T2, NET; details: read-out: NET [3H]nisoxetine Ki ± SEM; comparative data taken from Agoston et al. 1997; cited from earlier work
[11] = target: T5, dopaminergic transporter sites (Mus musculus, UniProt Q61327); test: In vivo binding of [125I]RTI-121 (displacement in striatum); details: mice
T5 construct: Whole brains were rapidly removed and striatum and cerebellum were dissected on ice; from tissue; host or cells: mouse striatum, in vivo occupancy
T5 sequence (Q61327 whole entry): as the sequence (P23977 whole entry) above, with S21P, A57V, A194S, H600R, L619V counted along it
From the text: In vivo binding of [^125I]RTI-121. Each animal received an i.v. injection of 2 μCi of [^125I]RTI-121. Two hours after administration of [^125I]RTI-121, the animals were sacrificed by cervical dislocation. In each mouse, displacement of [^125I]RTI-121 was examined by giving an i.p. injection of one of the displacers at various doses and times relative to sacrifice, Displacement by test drugs at various doses was examined at various times after their injection, with each data point determined in sets of approximately six mice. Whole brains were rapidly removed and striatum and cerebellum were dissected on ice.
Regional radioactivity levels were divided by weight (gram) of the tissue (CPM/tissue weight). Specific binding was calculated as CPM/tissue weight in striatum divided by cerebellum minus 1 (S/C−1), which is based on the observation that dopaminergic transporter sites are highly concentrated in the striatum and relatively absent in the cerebellum. These values were expressed as a percentage of specific binding after vehicle injection. Data were analyzed using two-way analysis of variance (ANOVA), and a post-hoc Tukey's test was used to determine significance of effects for individual doses at different time periods following IP injection of compound 1a (FIG. 3A), 1b (FIG. 3B), MFZ 2-74 (R^1=Me; R^2,3=F; R^4=CO2-^iPr) (FIG. 3C), 15 (FIG. 3D), and 14 (FIG. 3E). […]

[12] = read-out: DAT [3H]WIN 35,428 Ki ± SEM
[13] = ratio of respective Ki values, greater than 1 = DAT selective
[14] = rat brain membranes, read-out: M1 [3H]pirenzepine Ki ± SEM
[15] = comparative data taken from Agoston et al. 1997

| Structure (SMILES) | Ki (DAT [1]; [12]) [µM] | Binding selectivity DAT/NET (NET [2]; [13]) | Ki (SERT [4]) [µM] | Binding selectivity DAT/SERT (SERT [4]; [13]) | Ki (muscarinic M1 receptor [5]; [14]) [µM] | Binding selectivity DAT/M1 (muscarinic M1 receptor [5]; [13]) | further results |
| --- | --- | --- | --- | --- | --- | --- | --- |
| COC(=O)C1C(OC(c2ccc(Cl)cc2)c2ccc(Cl)cc2)CC2CCC1N2C (racemic) [(±)-14] | – | – | – | – | – | – | Ki (DAT [1]; read-out: DAT binding Ki): 0.0234 ± 0.0015 µM |
| CCOC(=O)C1C(OC(c2ccc(Cl)cc2)c2ccc(Cl)cc2)CC2CCC1N2C (racemic) [(±)-15] | – | – | – | – | – | – | Ki (DAT [1]; read-out: DAT binding Ki): 0.022 ± 0.00084 µM |
| COC(=O)[C@@H]1C2CCC(C[C@@H]1OC(c1ccc(F)cc1)c1ccc(F)cc1)N2C (stereo partly shown) [Compound 1a] | 0.00294 | 91 | 0.689 ± 0.0584 | 234 | 0.133 ± 0.00416 | 45 | Ki (NET [3]): 0.269 µM |
| CCOC(=O)[C@@H]1C2CCC(C[C@@H]1OC(c1ccc(F)cc1)c1ccc(F)cc1)N2C (stereo partly shown) [Compound 1b] | 0.00687 ± 0.00033 | 91 | 1.85 ± 0.27 | 269 | 1.89 ± 0.132 | 275 | Ki (NET [3]): 0.629 ± 0.031 µM |
| CN1C2CCC1[C@@H](CO)[C@@H](OC(c1ccc(F)cc1)c1ccc(F)cc1)C2 (stereo partly drawn) [Compound 2, S-(+)-2β-hydroxymethyl-3α-[bis(4-fluorophenyl)methoxy]tropane] | – | 279 | 0.91 ± 0.065 | 258 | 0.109 ± 0.0151 | 31 | Ki (DAT [1]): 0.00352 ± 0.00042 µM |
| C=C[C@@H]1C2CCC(C[C@@H]1OC(c1ccc(F)cc1)c1ccc(F)cc1)N2C (stereo partly drawn) [Compound 4, S-(+)-2β-Ethenyl-3α-[bis(4-fluorophenyl)methoxy]tropane] | 0.00181 | 261 | 1.79 ± 0.114 | 989 | 0.163 ± 0.0231 | 90 | – |
| COC(=O)/C=C/[C@@H]1C2CCC(C[C@@H]1OC(c1ccc(F)cc1)c1ccc(F)cc1)N2C (stereo partly drawn) [Compound 5, S-(+)-2β-(2′-(methoxycarbonyl)eth-1′-enyl)-3α-[bis(4-fluorophenyl)methoxy]tropane] | 0.00469 ± 0.0006 | 54 | 0.572 ± 0.051 | 115 | 1.38 ± 0.081 | 278 | Ki (DAT [1]): 0.00496 µM |
| COC(=O)CC[C@@H]1C2CCC(C[C@@H]1OC(c1ccc(F)cc1)c1ccc(F)cc1)N2C (stereo partly drawn) [Compound 6, S-(+)-2β-(2′-(Methoxycarbonyl)ethyl)-3α-[bis(4-fluorophenyl)methoxy]tropane] | 0.00374 | 121 | 1.07 ± 0.118 | 286 | 3.11 ± 0.435 | 831 | – |
| CN1[C@@H]2CC[C@H]1[C@H](COC(=O)CCCc1ccc([N+](=O)[O-])cc1)[C@@H](OC(c1ccc(F)cc1)c1ccc(F)cc1)C2 [Compound 7, S-(+)-2β-{[4-(4′-Nitrophenyl)butyryl]oxymethyl}-3α-[bis(4-fluorophenyl)methoxy]tropane] | – | – | 3.78 ± 0.39 | – | – | – | Ki (muscarinic M1 receptor [5]): 0.708 ± 0.102 µM |
| CN1C2CCC1[C@@H](COC(=O)CCCc1ccc(N)cc1)[C@@H](OC(c1ccc(F)cc1)c1ccc(F)cc1)C2 (stereo partly drawn) [Compound 8, S-(−)-2β-{[4-(4′-Aminophenyl)butyryl]oxymethyl}-3α-[bis(4-fluorophenyl)methoxy]tropane] | 0.0276 ± 0.00085 | – | 1.39 ± 0.145 | – | 0.342 ± 0.0337 | reduced DAT/M1 selectivity | Binding selectivity DAT/NET (NET [2]): 16; Binding selectivity DAT/SERT (SERT [4]): 50; Binding selectivity DAT/M1 (muscarinic M1 receptor [5]): 12 |
| CCOC(=O)[C@@H]1C2CCC(C[C@@H]1OC(c1ccc(F)cc1)c1ccc(F)cc1)N2 (stereo partly drawn) [Compound 9, S-(+)-N-nor-2β-Carboethoxy-3α-[bis(4-fluorophenyl)methoxy]tropane] | 0.00887 ± 0.00102 | 63 | 2.15 ± 0.222 | 242 | 17.1 ± 2.48 | – | – |
| CCCCN1C2CCC1[C@@H](C(=O)OCC)[C@@H](OC(c1ccc(F)cc1)c1ccc(F)cc1)C2 (stereo partly drawn) [Compound 10, S-(+)-N-Butyl-2β-carboethoxy-3α-[bis(4-fluorophenyl)methoxy]tropane] | 0.00818 ± 0.00017 | 71 | 2.5 ± 0.327 | 305 | 3.2 ± 0.298 | 391 | – |
| C=CCN1C2CCC1[C@@H](C(=O)OCC)[C@@H](OC(c1ccc(F)cc1)c1ccc(F)cc1)C2 (stereo partly drawn) [Compound 11, S-(+)-N-Allyl-2β-carboethoxy-3α-[bis(4-fluorophenyl)methoxy]tropane] | 0.011 ± 0.00094 | 85 | 2.28 ± 0.125 | 207 | 11.4 ± 1.65 | 1036 | – |
| CCCCN1[C@@H]2CC[C@H]1C[C@@H](OC(c1ccc(F)cc1)c1ccc(F)cc1)C2 [Compound 12] | – | 153 | – | 139 | – | 41 | Ki (muscarinic M1 receptor [6]): 0.399 ± 0.0268 µM; Effect (of a 50% effective nicotine dose after pretreatment) [7]: 2.67%; Ki (DAT [8]; comparative data taken from Agoston et al. 1997; read-out: DAT [3H]WIN 35,428 Ki ± SEM; cited from earlier work): 0.0097 ± 0.00091 µM; Ki (SERT [9]): 1.35 ± 0.151 µM; Ki (NET [10]): 1.49 ± 0.19 µM |
| C=CCN1[C@@H]2CC[C@H]1C[C@@H](OC(c1ccc(F)cc1)c1ccc(F)cc1)C2 [Compound 13] | – | 178 | – | 324 | – | 20 | Ki (muscarinic M1 receptor [6]; [15]): 0.177 ± 0.0211 µM; Effect (of a 50% effective nicotine dose after pretreatment) [7]: 22.4%; Ki (DAT [8]; read-out: DAT [3H]WIN 35,428 Ki ± SEM; comparative data taken from Agoston et al. 1997; cited from earlier work): 0.00879 ± 0.00052 µM; Ki (SERT [9]; [15]): 2.85 ± 0.0625 µM; Ki (NET [10]): 1.57 ± 0.242 µM |
| CC(C)OC(=O)C1C(OC(c2ccc(F)cc2)c2ccc(F)cc2)CC2CCC1N2C (stereo not shown) [MFZ 2-74] | – | – | – | – | – | – | Time of maximal displacement of [125I]RTI-121 after injection ([11]; IP injection of displacer, striatum vs cerebellum, FIG. 3): not obtained; Time at which maximal displacement of [125I]RTI-121 would likely be obtained ([11]; IP injection, FIG. 3C, maximal displacement not obtained in the test): > 3 h |
